Assay results taken from the supplement of paper PMC10307832.

Legend:
Assay in all cases: relative viability (nuclei count vs DMSO), 5 days (fraction); higher = more cells survive
VX-11e + Bortezomib = compound: CC1=CN=C(N=C1C2=CNC(=C2)C(=O)N[C@H](CO)C3=CC(=CC=C3)Cl)NC4=C(C=C(C=C4)F)Cl [VX-11e] + CC(C)C[C@H](NC(=O)[C@H](Cc1ccccc1)NC(=O)c1cnccn1)B(O)O [Bortezomib] (partner 0.002 µM)
Method in brief: (§1)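 Medians of duplicate plates are given as relative viability. That measure is the nuclei count in treated wells divided by the count in vehicle wells. Counts were taken on 4× images of lung cancer cell lines in 1536-well plates, 5 days after pin-tool dosing the day after seeding with one drug alone or a fixed anchor-drug dose plus five library-drug doses (not always all listed) in √10 steps.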

VX-11e + Navitoclax = compound: CC1=CN=C(N=C1C2=CNC(=C2)C(=O)N[C@H](CO)C3=CC(=CC=C3)Cl)NC4=C(C=C(C=C4)F)Cl [VX-11e] + CC1(C)CCC(c2ccc(Cl)cc2)=C(CN2CCN(c3ccc(C(=O)NS(=O)(=O)c4ccc(N[C@H](CCN5CCOCC5)CSc5ccccc5)c(S(=O)(=O)C(F)(F)F)c4)cc3)CC2)C1 [Navitoclax] (partner 0.5 µM)
Method in brief: as §1

VX-11e + Luminespib = compound: CC1=CN=C(N=C1C2=CNC(=C2)C(=O)N[C@H](CO)C3=CC(=CC=C3)Cl)NC4=C(C=C(C=C4)F)Cl [VX-11e] + CCNC(=O)c1noc(-c2cc(C(C)C)c(O)cc2O)c1-c1ccc(CN2CCOCC2)cc1 [Luminespib] (partner 0.01 µM)
Method in brief: as §1

VX-11e + Dasatinib = compound: CC1=CN=C(N=C1C2=CNC(=C2)C(=O)N[C@H](CO)C3=CC(=CC=C3)Cl)NC4=C(C=C(C=C4)F)Cl [VX-11e] + Cc1nc(Nc2ncc(C(=O)Nc3c(C)cccc3Cl)s2)cc(N2CCN(CCO)CC2)n1 [Dasatinib] (partner 0.075 µM)
Method in brief: as §1

Row | Cell Line | relative viability (VX-11e + Bortezomib; first compound 0.04 µM) | relative viability (VX-11e + Bortezomib; first compound 0.1265 µM) | relative viability (VX-11e + Bortezomib; first compound 0.4 µM) | relative viability (VX-11e + Bortezomib; first compound 1.265 µM) | relative viability (VX-11e + Bortezomib; first compound 4 µM) | relative viability (VX-11e + Navitoclax; first compound 0.04 µM) | relative viability (VX-11e + Navitoclax; first compound 0.1265 µM) | relative viability (VX-11e + Navitoclax; first compound 0.4 µM) | relative viability (VX-11e + Navitoclax; first compound 1.265 µM) | relative viability (VX-11e + Navitoclax; first compound 4 µM) | relative viability (VX-11e + Luminespib; first compound 0.04 µM) | relative viability (VX-11e + Luminespib; first compound 0.1265 µM) | relative viability (VX-11e + Luminespib; first compound 1.265 µM) | relative viability (VX-11e + Luminespib; first compound 4 µM) | relative viability (VX-11e + Dasatinib; first compound 0.04 µM) | relative viability (VX-11e + Dasatinib; first compound 0.1265 µM) | relative viability (VX-11e + Dasatinib; first compound 1.265 µM) | relative viability (VX-11e + Dasatinib; first compound 4 µM) | relative viability (VX-11e + Luminespib; first compound 0.4 µM) | relative viability (VX-11e + Dasatinib; first compound 0.4 µM)
1 | NCI-H2228 | 1.18 | 1.18 | 0.221 | 0.681 | 0.284 | 0.902 | 0.73 | 1.08 | 0.477 | 0.162 | 0.145 | 0.138 | 0.148 | 0.12 | 0.591 | 0.578 | 0.351 | 0.188 |  | 
2 | NCI-H2347 | 0.87 | 0.801 | 0.815 | 0.738 | 0.435 | 0.932 | 0.818 | 0.683 | 0.352 | 0.213 | 0.293 | 0.548 | 0.269 | 0.366 | 0.221 | 0.314 | 0.232 | 0.197 | 0.323 | 0.126
3 | NCI-H2405 | 1.04 | 0.953 | 0.988 | 0.952 | 0.601 | 1.03 | 0.921 |  | 0.592 | 0.126 | 0.798 | 0.719 | 0.717 | 0.296 | 0.204 | 0.186 | 0.151 | 0.128 | 0.395 | 0.15
4 | NCI-H3122 | 1.11 | 1.03 | 0.743 | 0.832 | 0.676 | 0.969 | 1.02 | 0.989 | 0.995 | 0.597 | 0.0662 | 0.0869 | 0.0911 | 0.0987 | 0.7 | 0.637 | 0.476 | 0.224 |  | 
5 | PC-3 [JPC-3] | 0.91 | 0.828 | 0.803 | 0.993 | 0.719 | 0.786 | 0.803 | 0.682 | 0.831 | 0.743 | 0.627 | 0.595 | 0.744 | 0.591 | 0.904 | 0.903 | 1.16 | 0.883 | 0.66 | 0.886
6 | PC-14 | 0.967 | 0.798 | 0.818 | 0.869 | 0.527 | 1.05 | 1.04 | 1.09 | 0.978 | 0.727 | 0.199 | 0.173 | 0.112 | 0.172 | 0.359 | 0.237 | 0.319 | 0.109 |  | 0.168
7 | RERF-LC-KJ | 1 | 1.04 |  | 1.03 | 0.894 | 0.849 | 1.1 | 0.977 | 0.946 | 0.619 | 1.32 | 1.06 | 1.21 | 1.11 | 0.872 | 0.758 | 0.71 | 0.59 | 1.05 | 0.867
8 | SK-LU-1 | 1.01 | 0.718 |  | 0.895 | 0.452 | 1.06 | 0.817 | 0.508 | 0.634 | 0.168 | 0.179 | 0.196 | 0.199 | 0.177 | 0.202 | 0.184 | 0.147 | 0.108 |  | 
9 | SW 1573 | 0.812 | 0.854 | 1.02 | 0.826 | 0.64 | 1.12 | 0.959 | 0.945 | 0.672 | 0.553 | 0.233 | 0.206 | 0.384 | 0.133 | 0.656 | 0.641 | 0.424 | 0.28 | 0.23 | 0.718
10 | UMC-11 | 0.562 | 0.668 | 0.714 | 0.598 | 0.551 | 0.288 | 0.263 | 0.295 | 0.324 | 0.327 | 1.01 | 1.02 | 0.948 | 0.94 | 0.44 | 0.42 | 0.587 | 0.464 | 1.02 | 0.439
